Experiments:
[1] = tested on: GD8/6 cells (CHO-cells stably expressing Factor VIII); assay: Volumetric FVIII productivity of GD8/6 cells in chemostat culture (chromogenic FVIII assay); assay type: cell-based
Protocol: (§1) Cell cultures of recombinant mammalian cells (e.g. CHO-cells stably expressing Factor VIII=GD8/6-cells) were grown in suspension in a chemostat culture in 10 l bioreactors. The culture conditions of 37° C., oxygen saturation 20% and pH 7.0 to 7.1 were kept constant. The cultures were supplied with a constant feed of BAV-medium as defined in Example 1 additionally supplemented with soy hydrolysates in the range of […] and/or addition of putrescine.2HCl in the range of 0-1 mg/L (cf. FIG. 1-5).
The volumetric productivity is calculated from the amount of activity units or antigen titers yielded per liter reactor volume per day (U/L/d or mg/L/d) in the respective production systems.

[2] = tested on: GD8/6 cells (CHO-cells stably expressing Factor VIII)
Protocol: as §1
Cell counts from suspension cells or immobilized cells were determined either by counting with a CASY® cell counter as described by Schärfe et al., (Biotechnologie in LaborPraxis 10: 1096-1103 (1988)) or by citric acid extraction and fluorescent staining of the nuclei followed by counting with a NucleoCounter® (Chemometec, DK). The specific growth rate (μ) is calculated from the increase of the cell densities (X1) and/or the dilution rate (D) of the steady state of chemostat cultures of suspensions cells over a certain time interval (t): μ=D+In (Xt I X0)/t

Recombinant BHK cells = conditions: 0.25% (w/v) soy hydrolysate + 1.8 mg/L putrescine.2HCl vs 0.25% soy peptone alone; 3 days; EPO activity per glucose consumption
Protocol: Recombinant BHK cells were grown to confluence in 5% (v/v) fetal calf serum containing medium. The cells were washed with protein-free medium and incubated for 3 days in BAV medium supplemented with 0.25% (w/v) soy hydrolysate or 0.25% (w/v) soy hydrolysate+1.8 mg/L putrescine.2HCl (FIG. 8).

GD8/6 cells = conditions: 0-18 mg/L (as HCl salt) in BAV-medium with 0.25% soy hydrolysate vs unsupplemented 0.25% or 0.4% soy hydrolysate
Protocol: Small scale experiments with GD8/6 cells in suspension culture were carried in Techne spinner flasks at 200 ml working volume in batch refeed mode at 37° C., without pH and pO2 control.
The activity of Factor VIII (FVIII) (cf. FIGS. 1 to 5 and 9) was measured by a chromogenic assay (Chromogenic, Sweden).
The cell specific productivity is defined as the specific amount of produced protein (U or μg) per number of cells per day (cf. FIGS. 7 and 9) or as the specific amount of produced protein (U) produced per amount of D-glucose consumed by the cells (cf. FIG. 8).

[3] = 0.25% (w/v) soy hydrolysate + 1 mg/L putrescine.2HCl
[4] = 0.25% (w/v) soy hydrolysate + 1 mg/L putrescine.2HCl vs 0.25% soy hydrolysate alone

| SMILES | variation of volumetric FVIII-productivity between soy hydrolysate lots [1, 3] | volumetric and cell specific FVIII-productivity, change [1, 4] | volumetric productivity of FVIII, effect of addition ([1]; addition to BAV-medium with 0.25% (w/v) soy hydrolysate, due to increased cell specific FVIII productivity) | variation of specific growth rates between soy hydrolysate lots [2, 3] | specific growth rate, change [2, 4] | increase in EPO productivity (Recombinant BHK cells) [%] | cell specific productivity (FVIII), change (GD8/6 cells) |
| --- | --- | --- | --- | --- | --- | --- | --- |
| NCCCCN [putrescine] | only minor variations | increases | over proportional increased | only minor variations | increases | 16 | significant increase |
| NCCC[C@H](N)C(=O)O [ornithine] | – | – | – | – | – | – | significant increase |
| NCCCNCCCCNCCCN [spermine] | – | – | – | – | – | – | significant increase |

From patent US10655099B2, “Animal protein-free media for cultivation of cells” (Baxalta Incorporated, priority 2004, dated 2020)
